Legend:
Format in all cases: in vivo
[1] = system: barnyardgrass (Echinochloa crus-galli); experiment: Test A preemergence, barnyardgrass; conditions: 0 to 100 scale (0 no effect, 100 complete control)
Outline: (§1)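 Visual injury scores (0 no effect to 100 complete control) taken about 10 days after treatment, relative to untreated plants. Treatments were directed soil spray at planting for preemergence, or foliar application to one- to two-leaf plants (2-10 cm) for postemergence, with surfactant-containing formulations in loam–sand pots.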

kochia (Kochia scoparia) [2] = experiment: Test A preemergence, kochia; conditions: 0 to 100 scale (0 no effect, 100 complete control)
Outline: as §1

[3] = system: ragweed (common ragweed, Ambrosia elatior); experiment: Test A preemergence, ragweed; conditions: 0 to 100 scale (0 no effect, 100 complete control)
Outline: as §1

[4] = system: ryegrass, Italian (Lolium multiflorum); experiment: Test A preemergence, Italian ryegrass; conditions: 0 to 100 scale (0 no effect, 100 complete control)
Outline: as §1

[5] = system: foxtail, giant (Setaria faberii); experiment: Test A preemergence, giant foxtail; conditions: 0 to 100 scale (0 no effect, 100 complete control)
Outline: as §1

[6] = system: pigweed (Amaranthus retroflexus); experiment: Test A preemergence, pigweed; conditions: 0 to 100 scale (0 no effect, 100 complete control)
Outline: as §1

[7] = system: barnyardgrass (Echinochloa crus-galli); experiment: Test A postemergence, barnyardgrass; conditions: 0 to 100 scale (0 no effect, 100 complete control)
Outline: as §1

kochia (Kochia scoparia) [8] = experiment: Test A postemergence, kochia; conditions: 0 to 100 scale (0 no effect, 100 complete control)
Outline: as §1

[9] = system: ragweed (common ragweed, Ambrosia elatior); experiment: Test A postemergence, ragweed; conditions: 0 to 100 scale (0 no effect, 100 complete control)
Outline: as §1

[10] = system: ryegrass, Italian (Lolium multiflorum); experiment: Test A postemergence, Italian ryegrass; conditions: 0 to 100 scale (0 no effect, 100 complete control)
Outline: as §1

[11] = system: foxtail, giant (Setaria faberii); experiment: Test A postemergence, giant foxtail; conditions: 0 to 100 scale (0 no effect, 100 complete control)
Outline: as §1

[12] = system: pigweed (Amaranthus retroflexus); experiment: Test A postemergence, pigweed; conditions: 0 to 100 scale (0 no effect, 100 complete control)
Outline: as §1

[13] = system: blackgrass (Alopecurus myosuroides); experiment: Test A postemergence, blackgrass; conditions: 0 to 100 scale (0 no effect, 100 complete control)
Outline: as §1

[14] = system: galium (catchweed bedstraw, Galium aparine); experiment: Test A postemergence, galium; conditions: 0 to 100 scale (0 no effect, 100 complete control)
Outline: as §1

[15] = system: wheat (Triticum aestivum); experiment: Test A postemergence, wheat; conditions: 0 to 100 scale (0 no effect, 100 complete control)
Outline: as §1

corn (Zea mays) = experiment: Test A postemergence, corn; conditions: 0 to 100 scale (0 no effect, 100 complete control)
Outline: as §1

rice (Oryza sativa) = experiment: Test B flooded paddy test, rice; conditions: applied to paddy water, visual rating after 13 to 15 days, scale 0 (no effect) to 100 (complete control)
Outline: (§2)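 Ratings were visual and made relative to untreated controls after 13 to 15 greenhouse days.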

[16] = system: sedge, umbrella (small-flower umbrella sedge, Cyperus difformis); experiment: Test B flooded paddy test, umbrella sedge; conditions: applied to paddy water, visual rating after 13 to 15 days, scale 0 (no effect) to 100 (complete control)
Outline: as §2

[17] = system: ducksalad (Heteranthera limosa); experiment: Test B flooded paddy test, ducksalad; conditions: applied to paddy water, visual rating after 13 to 15 days, scale 0 (no effect) to 100 (complete control)
Outline: as §2

[18] = system: barnyardgrass (Echinochloa crus-galli); experiment: Test B flooded paddy test, barnyardgrass; conditions: applied to paddy water, visual rating after 13 to 15 days, scale 0 (no effect) to 100 (complete control)
Outline: as §2

[19] = 125 g ai/ha, visual injury, approximately 10 days
[20] = 500 g ai/ha, visual injury, approximately 10 days

| Compound | Plant response rating, Barnyardgrass ([1]; 125 g ai/ha) | Plant response rating, Kochia (kochia (Kochia scoparia) [2]; 125 g ai/ha) | Plant response rating, Ragweed ([3]; 125 g ai/ha) | Plant response rating, Ryegrass, Italian ([4]; 125 g ai/ha) | Plant response rating, Foxtail, Giant ([5]; 125 g ai/ha) | Plant response rating, Pigweed ([6]; 125 g ai/ha) | Plant response rating, Barnyardgrass [7, 19] | Plant response rating, Kochia (kochia (Kochia scoparia) [8]; [19]) | Plant response rating, Ragweed [9, 19] | Plant response rating, Ryegrass, Italian [10, 19] | Plant response rating, Foxtail, Giant [11, 19] | Plant response rating, Pigweed [12, 19] | Plant response rating, Blackgrass [13, 19] | Plant response rating, Galium [14, 19] | Plant response rating, Wheat [15, 19] | Plant response rating, Corn (corn (Zea mays); [19]) | Plant response rating, Rice (Flood) (rice (Oryza sativa); 250 g ai/ha) | Plant response rating, Sedge, Umbrella (Flood) ([16]; 250 g ai/ha) | Plant response rating, Ducksalad (Flood) ([17]; 250 g ai/ha) | Plant response rating, Barnyardgrass (Flood) ([18]; 250 g ai/ha) | also measured |
| --- | --- | --- | --- | --- | --- | --- | --- | --- | --- | --- | --- | --- | --- | --- | --- | --- | --- | --- | --- | --- | --- |
| O=C1NCC(c2cccc(Oc3ccccn3)c2)C1C(=O)Nc1ccccc1Cl (stereo not drawn) [Compound 69] | 0 | 0 | 0 | 0 | 0 | 0 | 0 | 0 | 0 | 0 | 0 | 0 | 0 | 0 | 0 | 0 |  |  |  |  | Plant response rating, Barnyardgrass ([1]; 500 g ai/ha): 0; Plant response rating, Kochia (kochia (Kochia scoparia) [2]; 500 g ai/ha): 0; Plant response rating, Ragweed ([3]; 500 g ai/ha): 0; Plant response rating, Ryegrass, Italian ([4]; 500 g ai/ha): 0; Plant response rating, Foxtail, Giant ([5]; 500 g ai/ha): 50; Plant response rating, Pigweed ([6]; 500 g ai/ha): 0; Plant response rating, Barnyardgrass [7, 20]: 20; Plant response rating, Kochia (kochia (Kochia scoparia) [8]; [20]): 0; Plant response rating, Ragweed [9, 20]: 0; Plant response rating, Ryegrass, Italian [10, 20]: 0; Plant response rating, Foxtail, Giant [11, 20]: 30; Plant response rating, Pigweed [12, 20]: 0; Plant response rating, Blackgrass [13, 20]: 0; Plant response rating, Galium [14, 20]: 0; Plant response rating, Wheat [15, 20]: 0; Plant response rating, Corn (corn (Zea mays); [20]): 0; Plant response rating, Rice (Flood) (rice (Oryza sativa); 500 g ai/ha): 0; Plant response rating, Sedge, Umbrella (Flood) ([16]; 500 g ai/ha): 0; Plant response rating, Ducksalad (Flood) ([17]; 500 g ai/ha): 70; Plant response rating, Barnyardgrass (Flood) ([18]; 500 g ai/ha): 0 |
| CN1C[C@H](c2cccc(Oc3ccc(F)cn3)c2)[C@@H](C(=O)Nc2ccc(F)c(F)c2F)C1=O [Compound 87, (3S,4S)-4-[3-[(5-fluoro-2-pyridinyl)oxy]phenyl]-1-methyl-2-oxo-N-(2,3,4-trifluorophenyl)-3-pyrrolidinecarboxamide] | 90 | 60 | 0 | 80 | 90 | 70 | 80 | 30 | 0 | 70 | 80 | 70 | 60 | 60 | 40 | 90 | 0 | 0 | 85 | 60 | Plant response rating, Barnyardgrass ([1]; 31 g ai/ha): 60; Plant response rating, Kochia (kochia (Kochia scoparia) [2]; 31 g ai/ha): 0; Plant response rating, Ragweed ([3]; 31 g ai/ha): 0; Plant response rating, Ryegrass, Italian ([4]; 31 g ai/ha): 0; Plant response rating, Foxtail, Giant ([5]; 31 g ai/ha): 90; Plant response rating, Pigweed ([6]; 31 g ai/ha): 70; Plant response rating, Barnyardgrass ([7]; 31 g ai/ha): 50; Plant response rating, Kochia (kochia (Kochia scoparia) [8]; 31 g ai/ha): 0; Plant response rating, Ragweed ([9]; 31 g ai/ha): 0; Plant response rating, Ryegrass, Italian ([10]; 31 g ai/ha): 40; Plant response rating, Foxtail, Giant ([11]; 31 g ai/ha): 70; Plant response rating, Pigweed ([12]; 31 g ai/ha): 0; Plant response rating, Blackgrass ([13]; 31 g ai/ha): 30; Plant response rating, Galium ([14]; 31 g ai/ha): 30; Plant response rating, Wheat ([15]; 31 g ai/ha): 0; Plant response rating, Corn (corn (Zea mays); 31 g ai/ha): 60 |
| CN1CC(c2cccc(Oc3ccc(F)cn3)c2)C(C(=O)Nc2cccc(C#N)c2F)C1=O (single isomer, unassigned) [Compound 88] | 30 | 30 | 0 | 20 | 90 | 20 | 80 | 30 | 0 | 0 | 70 | 20 | 0 | 40 | 60 | 20 | 0 | 0 | 50 | 0 | Plant response rating, Barnyardgrass ([1]; 31 g ai/ha): 0; Plant response rating, Kochia (kochia (Kochia scoparia) [2]; 31 g ai/ha): 0; Plant response rating, Ragweed ([3]; 31 g ai/ha): 0; Plant response rating, Ryegrass, Italian ([4]; 31 g ai/ha): 0; Plant response rating, Foxtail, Giant ([5]; 31 g ai/ha): 30; Plant response rating, Pigweed ([6]; 31 g ai/ha): 0; Plant response rating, Barnyardgrass ([7]; 31 g ai/ha): 30; Plant response rating, Kochia (kochia (Kochia scoparia) [8]; 31 g ai/ha): 0; Plant response rating, Ragweed ([9]; 31 g ai/ha): 0; Plant response rating, Ryegrass, Italian ([10]; 31 g ai/ha): 0; Plant response rating, Foxtail, Giant ([11]; 31 g ai/ha): 30; Plant response rating, Pigweed ([12]; 31 g ai/ha): 0; Plant response rating, Blackgrass ([13]; 31 g ai/ha): 0; Plant response rating, Galium ([14]; 31 g ai/ha): 30; Plant response rating, Wheat ([15]; 31 g ai/ha): 0; Plant response rating, Corn (corn (Zea mays); 31 g ai/ha): 0 |
| CN1CC(c2cccc(Oc3ccc(C(F)(F)F)cn3)c2)C(C(=O)Nc2ccccc2F)C1=O (single isomer, unassigned) [Compound 43] | 80 | 30 | 0 | 30 | 90 | 40 | 90 | 40 | 0 | 0 | 80 | 30 | 30 | 70 | 30 | 40 | 15 | 0 | 98 | 50 | Plant response rating, Barnyardgrass ([1]; 500 g ai/ha): 80; Plant response rating, Kochia (kochia (Kochia scoparia) [2]; 500 g ai/ha): 30; Plant response rating, Ragweed ([3]; 500 g ai/ha): 80; Plant response rating, Ryegrass, Italian ([4]; 500 g ai/ha): 80; Plant response rating, Foxtail, Giant ([5]; 500 g ai/ha): 90; Plant response rating, Pigweed ([6]; 500 g ai/ha): 80; Plant response rating, Barnyardgrass [7, 20]: 90; Plant response rating, Kochia (kochia (Kochia scoparia) [8]; [20]): 60; Plant response rating, Ragweed [9, 20]: 0; Plant response rating, Ryegrass, Italian [10, 20]: 30; Plant response rating, Foxtail, Giant [11, 20]: 80; Plant response rating, Pigweed [12, 20]: 50; Plant response rating, Blackgrass [13, 20]: 50; Plant response rating, Galium [14, 20]: 80; Plant response rating, Wheat [15, 20]: 50; Plant response rating, Corn (corn (Zea mays); [20]): 80 |

Reference: patent US10405547B2, “Substituted cyclic amides as herbicides” (FMC Corporation, priority 2015, dated 2019)
